Consider 53 compounds from patent US20250197382A1, “KIF18A INHIBITOR” (WIGEN BIOMEDICINE TECHNOLOGY (SHANGHAI) CO., LTD., priority 2022, published 2025).

A value given as a limit tells only on which side of the number the result lay.

For this test, the target named is Recombinant human KIF18A (1-467His-tagged) protein (Homo sapiens (Human), UniProt Q8NI77). Nature of the test: KIF18A enzyme assay (microtubule-stimulated ATPase activity, ADP-Glo). The class given is biochemical. The note with it: 30 nM KIF18A, ATP 75 μM, read-out: inhibitory activity against KIF18A IC50. The method, then: Biological Example 1. Assay for In Vitro Inhibition of Enzymatic Activity of KIF18A by Compounds of the Present Invention
KIF18A enzyme assay: The enzymatic activity of KIF18A after treatment with the compounds was measured by an assay of microtubule-stimulated ATPase activity. ADP generated from the ATPase reaction was measured in this assay. The compounds were serially diluted 2-fold in DMSO over a range of 22 concentration points. Recombinant human KIF18A (1-467His-tagged) protein was expressed using a baculovirus system. Concentrations of KIF18A protein, microtubules, and ATP in the reaction were optimized for a standardized homogenous enzyme assay using an ADP-Glo kinase/ATPase assay kit. A reaction buffer [(15 mM Tris, pH 7.5), 10 mM MgCl2, 0.01% PluronicF-68, 1 μM paclitaxel, and 30 μg/mL pig microtubules] was prepared. The compounds and KIF18A protein (30 nM) were added to the prepared reaction buffer, and the reaction mixture was incubated at room temperature for 15 min, followed by addition of ATP (Km, 75 μM). The resulting reaction mixture was incubated at room temperature for another 15 min. 5 μL of ADP-Glo reagent and 2.5 μL of the reaction mixture were mixed and the resulting mixture was incubated at room temperature for 40 min. 10 μL of ADP-Glo detection reagent was added and the mixture was incubated at room temperature for 40 min. Luminescence was measured using a microplate reader and compared with that of the DMSO group, and then the inhibition percentages and IC50 values of the compounds were calculated.

Recombinant human KIF18A (1-467His-tagged) protein, sequence (Q8NI77 1-467): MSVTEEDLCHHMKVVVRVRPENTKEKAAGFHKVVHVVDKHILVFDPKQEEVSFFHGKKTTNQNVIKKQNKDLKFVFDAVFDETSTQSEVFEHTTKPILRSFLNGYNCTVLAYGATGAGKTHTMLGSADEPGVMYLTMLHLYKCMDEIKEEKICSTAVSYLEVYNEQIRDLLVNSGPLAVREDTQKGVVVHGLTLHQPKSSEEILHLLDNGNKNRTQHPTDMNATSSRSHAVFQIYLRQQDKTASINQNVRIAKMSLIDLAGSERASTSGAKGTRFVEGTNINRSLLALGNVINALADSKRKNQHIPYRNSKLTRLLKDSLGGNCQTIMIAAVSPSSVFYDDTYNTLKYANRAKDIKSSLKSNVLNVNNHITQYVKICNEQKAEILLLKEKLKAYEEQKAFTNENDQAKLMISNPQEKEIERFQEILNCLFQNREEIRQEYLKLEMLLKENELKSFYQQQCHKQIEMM
Recombinant human KIF18A (1-467His-tagged) protein, sequence (P02550 whole entry partner): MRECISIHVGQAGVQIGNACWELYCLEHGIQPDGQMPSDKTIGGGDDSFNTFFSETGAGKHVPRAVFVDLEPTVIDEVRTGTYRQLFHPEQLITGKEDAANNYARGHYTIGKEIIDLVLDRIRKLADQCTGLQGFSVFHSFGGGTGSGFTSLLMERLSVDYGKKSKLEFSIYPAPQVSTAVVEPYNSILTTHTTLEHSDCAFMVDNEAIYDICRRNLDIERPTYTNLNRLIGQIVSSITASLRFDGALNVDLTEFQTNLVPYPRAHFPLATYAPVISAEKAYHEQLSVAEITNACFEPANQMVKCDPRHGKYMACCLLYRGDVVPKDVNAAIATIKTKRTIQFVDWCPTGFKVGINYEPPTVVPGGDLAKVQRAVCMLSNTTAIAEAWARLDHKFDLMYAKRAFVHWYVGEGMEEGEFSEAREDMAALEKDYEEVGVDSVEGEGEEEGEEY
Recombinant human KIF18A (1-467His-tagged) protein, sequence (P02554 whole entry partner): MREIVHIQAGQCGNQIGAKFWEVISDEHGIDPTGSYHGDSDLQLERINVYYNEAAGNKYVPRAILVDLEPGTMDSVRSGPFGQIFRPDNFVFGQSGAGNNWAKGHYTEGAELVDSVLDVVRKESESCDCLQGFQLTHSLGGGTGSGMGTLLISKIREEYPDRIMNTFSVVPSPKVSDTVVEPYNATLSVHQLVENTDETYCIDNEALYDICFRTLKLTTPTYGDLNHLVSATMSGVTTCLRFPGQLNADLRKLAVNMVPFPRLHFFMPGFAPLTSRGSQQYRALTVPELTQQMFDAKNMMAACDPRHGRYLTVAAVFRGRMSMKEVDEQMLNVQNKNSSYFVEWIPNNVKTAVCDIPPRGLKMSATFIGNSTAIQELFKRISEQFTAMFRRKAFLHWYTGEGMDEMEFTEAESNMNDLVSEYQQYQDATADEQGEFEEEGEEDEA

As for `CN1CCc2cc(NC(=O)c3ccc(NS(=O)(=O)CCO)cc3N3CCC4(CC3)CC4)cc(N3CC(F)(F)C3)c21` [Compound 260], the IC50 (commonly the midpoint of a concentration-inhibition curve) was ≤ 100 nM.
Take `CN1CCc2cc(NC(=O)c3ccc(NS(=O)(=O)CCO)cc3N3CCC4(CC3)CC4)cc(OC3CCC3)c21` [Compound 263]: the IC50 was ≤ 100 nM.
`C[C@@H]1CN(c2nc(NC(=O)c3ccc(S(=O)(=O)N[C@@H](C)CO)cc3N3CCC4(CC3)CC4)cc3c2OCC3)CCO1` [Compound 95]: the IC50 was ≤ 100 nM.
The same measure for `CN1CCc2cc(NC(=O)c3ccc(S(=O)(=O)NCCO)cc3N3CCC4(CC3)CC4)nc(N3CCC(C)(F)C3)c21` (centres unmarked) [Compound 344]: ≤ 100 nM; for `CN1CCc2cc(C(=O)Nc3ccc(S(=O)(=O)NCCO)cc3N3CCC4(CC3)CC4)nc(N3CC4CC4C3)c21` (centres unmarked) [Compound 378]: ≤ 100 nM.
With `O=C(Nc1ccc(S(=O)(=O)NCCO)cc1N1CCC2(CC1)CC2)c1cc2c(c(OC3CCC3)c1)OCC2` [Compound 55], the half-maximal inhibitory concentration (IC50) was ≤ 100 nM.
On to `C[C@@H]1CN(c2nc(NC(=O)c3ccc(NS(=O)(=O)[C@@H](C)CO)cc3N3CCC4(CC3)CC4)cc3ccoc23)CCO1` [Compound 207], for which the IC50 is ≤ 100 nM.
With `CC1(F)CCN(c2cc(C(=O)Nc3ccc(S(=O)(=O)NCCO)cc3N3CCC4(CC3)CC4)cc3ccoc23)C1` (centres unmarked) [Compound 184], the IC50 is ≤ 100 nM.
On to `CC(C)(CO)Nc1cc(NC(=O)c2ccc(S(=O)(=O)NCCO)cc2N2CCC3(CC2)CC3)cc2ccoc12` [Compound 155], for which the IC50 was ≤ 100 nM.
Take `C[C@@H]1CN(c2cc(C(=O)Nc3ccc(NS(=O)(=O)[C@H](C)CO)cc3N3CCC4(CC3)CC4)cc3c2OCC3)CCO1` [Compound 48]: the half-maximal inhibitory concentration (IC50) is ≤ 100 nM.
As to `CC1(F)CCN(c2cc(C(=O)Nc3ccc(NS(=O)(=O)CCO)cc3N3CCC4(CC3)CC4)cc3ccoc23)C1` (centres unmarked) [Compound 168], the concentration for half-maximal inhibition (IC50) is ≤ 100 nM.
The result for `CN1CCc2cc(NC(=O)c3ccc(S(=O)(=O)NCCO)cc3N3CCC4(CC3)CC4)cc(N3CC4CC4C3)c21` (centres unmarked) [Compound 282] reads ≤ 100 nM; that for `O=C(Nc1cc(N2CCC(F)CC2)c2occc2c1)c1ccc(S(=O)(=O)NCCO)cc1N1CCC2(CC1)CC2` [Compound 153], ≤ 100 nM.
As to `C[C@@H](CO)S(=O)(=O)Nc1ccc(C(=O)Nc2cc(N3CCC(F)(F)CC3)c3occc3c2)c(N2CCC3(CC2)CC3)c1` [Compound 141], the 50% inhibitory concentration (IC50) is ≤ 100 nM.
`CN1CCc2cc(C(=O)Nc3ccc(S(=O)(=O)NCCO)cc3N3CCC4(CC3)CC4)cc(N3CCC(C)(F)C3)c21` (centres unmarked) [Compound 312]: the half-maximal inhibitory concentration (IC50) was ≤ 100 nM.
Turning to `O=C(Nc1ccc(S(=O)(=O)NCCO)cc1N1CCC2(CC1)CC2)c1cc2c(c(N3CCC(F)(F)CC3)c1)OCCC2` [Compound 547], the IC50 is ≤ 100 nM.
Turning to `C[C@@H](CO)NS(=O)(=O)c1ccc(C(=O)Nc2cc3c(c(N4CCC(F)(F)CC4)c2)OCC3)c(N2CCC3(CC2)CC3)c1` [Compound 29], the IC50 was ≤ 100 nM.
In the case of `C[C@@H]1CN(c2nc(NC(=O)c3ccc(S(=O)(=O)N[C@@H](C)CO)cc3N3CCC4(CC3)CC4)cc3ccn(C)c23)CCO1` [Compound 479], the IC50 is ≤ 100 nM.
Consider `O=C(Nc1cc2c(c(N3CCC(F)(F)CC3)n1)OCCC2)c1ccc(S(=O)(=O)NCCO)cc1N1CCC2(CC1)CC2` [Compound 549], for which the half-maximal inhibitory concentration (IC50) is ≤ 100 nM.
`CN1CCc2cc(NC(=O)c3ccc(S(=O)(=O)NCCO)cc3N3CCC4(CC3)CC4)nc(N3CC(F)(F)C3)c21` [Compound 340]: the IC50 was ≤ 100 nM.
As for `C[C@H](CO)S(=O)(=O)Nc1ccc(C(=O)Nc2cc3ccn(C)c3c(N3CCC(F)(F)CC3)n2)c(N2CCC3(CC2)CC3)c1` [Compound 462], the IC50 is ≤ 100 nM.
Take `CN1CCc2cc(NC(=O)c3ccc(S(=O)(=O)NCCO)cc3N3CCC4(CC3)CC4)cc(NC(C)(C)CO)c21` [Compound 283]: the IC50 was ≤ 100 nM.
The result for `CN1CCc2cc(C(=O)Nc3ccc(S(=O)(=O)NCCO)cc3N3CCC4(CC3)CC4)nc(OCCC(F)(F)F)c21` [Compound 373] reads ≤ 100 nM.
The same measure for `C[C@@H]1CN(c2cc(C(=O)Nc3ccc(NS(=O)(=O)[C@H](C)CO)cc3N3CCC4(CC3)CC4)cc3ccoc23)CCO1` [Compound 176]: ≤ 100 nM; for `C[C@@H]1CN(c2cc(NC(=O)c3ccc(S(=O)(=O)NCCO)cc3N3CCC4(CC3)CC4)cc3c2N(C)CC3)CCO1` [Compound 274]: ≤ 100 nM.
Regarding `CN1CCc2cc(NC(=O)c3ccc(NS(=O)(=O)CCO)cc3N3CCC4(CC3)CC4)cc(N3CCC4(CC4)C3)c21` [Compound 262], the concentration for half-maximal inhibition (IC50) was ≤ 100 nM.
In the case of `C[C@@H]1CN(c2cc(C(=O)Nc3ccc(S(=O)(=O)N[C@@H](C)CO)cc3N3CCC4(CC3)CC4)cc3ccn(C)c23)CCO1` [Compound 447], the IC50 is ≤ 100 nM.
`C[C@@H](CO)NS(=O)(=O)c1ccc(C(=O)Nc2cc3c(c(N4CCC(F)(F)CC4)c2)N(C)CC3)c(N2CCC3(CC2)CC3)c1` [Compound 285]: the IC50 was ≤ 100 nM.
Take `O=C(Nc1cc(N2CCC(F)CC2)c2occc2c1)c1ccc(NS(=O)(=O)CCO)cc1N1CCC2(CC1)CC2` [Compound 137]: the half-inhibitory concentration (IC50) is ≤ 100 nM.
`C[C@H](CO)S(=O)(=O)Nc1ccc(NC(=O)c2cc(N3CCC(F)(F)CC3)c3occc3c2)c(N2CCC3(CC2)CC3)c1` [Compound 174]: the IC50 is ≤ 100 nM.
On to `O=C(Nc1ccc(S(=O)(=O)NCCO)cc1N1CCC2(CC1)CC2)c1cc2c(c(N3CCC4(CC4)C3)c1)OCC2` [Compound 54], for which the IC50 is ≤ 100 nM.
`C[C@@H]1CN(c2nc(C(=O)Nc3ccc(S(=O)(=O)N[C@@H](C)CO)cc3N3CCC4(CC3)CC4)cc3ccoc23)CCO1` [Compound 255]: the half-inhibitory concentration (IC50) was ≤ 100 nM.
Regarding `C[C@@H]1CN(c2cc(NC(=O)c3ccc(S(=O)(=O)NCCO)cc3N3CCC4(CC3)CC4)cc3ccn(C)c23)CCO1` [Compound 402], the IC50 is ≤ 100 nM.
The result for `CC(C)(CO)Nc1nc(C(=O)Nc2ccc(NS(=O)(=O)CCO)cc2N2CCC3(CC2)CC3)cc2ccoc12` [Compound 235] reads ≤ 100 nM; that for `C[C@@H]1CN(c2nc(C(=O)Nc3ccc(NS(=O)(=O)[C@H](C)CO)cc3N3CCC4(CC3)CC4)cc3ccn(C)c23)CCO1` [Compound 496], ≤ 100 nM; that for `CN1CCc2cc(NC(=O)c3ccc(NS(=O)(=O)CCO)cc3N3CCC4(CC3)CC4)nc(NC(C)(C)CO)c21` [Compound 331], ≤ 100 nM.
Turning to `C[C@@H]1CN(c2cc(C(=O)Nc3ccc(S(=O)(=O)NCCO)cc3N3CCC4(CC3)CC4)cc3ccn(C)c23)CCO1` [Compound 434], the concentration for half-maximal inhibition (IC50) was ≤ 100 nM.
The same measure for `CN1CCc2cc(NC(=O)c3ccc(S(=O)(=O)NCCO)cc3N3CCC4(CC3)CC4)cc(OCCC(F)(F)F)c21` [Compound 277]: ≤ 100 nM; for `O=C(Nc1ccc(NS(=O)(=O)CCO)cc1N1CCC2(CC1)CC2)c1cc(OC2CCC2)c2occc2c1` [Compound 167]: ≤ 100 nM.
For `CC1(F)CCN(c2nc(C(=O)Nc3ccc(S(=O)(=O)NCCO)cc3N3CCC4(CC3)CC4)cc3ccoc23)C1` (centres unmarked) [Compound 248], the IC50 is ≤ 100 nM.
In the case of `Cn1ccc2cc(C(=O)Nc3ccc(NS(=O)(=O)CCO)cc3N3CCC4(CC3)CC4)nc(N3CCOCC3)c21` [Compound 492], the half-maximal inhibitory concentration (IC50) is ≤ 100 nM.
The same measure for `O=C(Nc1cc(OCCC(F)(F)F)c2occc2c1)c1ccc(NS(=O)(=O)CCO)cc1N1CCC2(CC1)CC2` [Compound 133]: ≤ 100 nM; for `C[C@@H]1CN(c2cc(NC(=O)c3ccc(NS(=O)(=O)[C@@H](C)CO)cc3N3CCC4(CC3)CC4)cc3c2OCC3)CCO1` [Compound 15]: ≤ 100 nM; for `O=C(Nc1ccc(NS(=O)(=O)CCO)cc1N1CCC2(CC1)CC2)c1cc2c(c(N3CCC(F)CC3)n1)OCC2` [Compound 105]: ≤ 100 nM.
With `O=C(Nc1cc(N2CCC(F)(F)CC2)c2ncoc2c1)c1ccc(NS(=O)(=O)CCO)cc1N1CCC2(CC1)CC2` [Compound 517], the concentration for half-maximal inhibition (IC50) was ≤ 100 nM.
Regarding `C[C@@H]1CN(c2nc(C(=O)Nc3ccc(S(=O)(=O)N[C@@H](C)CO)cc3N3CCC4(CC3)CC4)cc3ccn(C)c23)CCO1` [Compound 511], the IC50 is ≤ 100 nM.
As for `C[C@H](CO)S(=O)(=O)Nc1ccc(C(=O)Nc2cc(N3CCC(F)(F)CC3)c3occc3c2)c(N2CCC3(CC2)CC3)c1` [Compound 142], the IC50 is ≤ 100 nM.
Turning to `C[C@@H]1CN(c2nc(NC(=O)c3ccc(S(=O)(=O)NCCO)cc3N3CCC4(CC3)CC4)cc3ccoc23)CCO1` [Compound 210], the half-inhibitory concentration (IC50) is ≤ 100 nM.
Take `O=C(Nc1ccc(S(=O)(=O)NCCO)cc1N1CCC2(CC1)CC2)c1cc2c(c(N3CC(F)(F)C3)n1)OCC2` [Compound 116]: the IC50 is ≤ 100 nM.
Consider `Cn1ccc2cc(NC(=O)c3ccc(NS(=O)(=O)CCO)cc3N3CCC4(CC3)CC4)nc(OCCC(F)(F)F)c21` [Compound 453], for which the IC50 was ≤ 100 nM.
With `O=C(Nc1ccc(NS(=O)(=O)CCO)cc1N1CCC2(CC1)CC2)c1cc2c(c(N3CCOCC3)n1)OCC2` [Compound 108], the IC50 was ≤ 100 nM.
In the case of `O=C(Nc1ccc(S(=O)(=O)NCCO)cc1N1CCC2(CC1)CC2)c1cc(N2CCC3(CC3)C2)c2occc2c1` [Compound 182], the concentration for half-maximal inhibition (IC50) is ≤ 100 nM.
As to `O=C(Nc1ccc(S(=O)(=O)NCCO)cc1N1CCC2(CC1)CC2)c1cc2c(c(N3CC4CC4C3)n1)OCC2` (centres unmarked) [Compound 122], the half-inhibitory concentration (IC50) is ≤ 100 nM.
